Like-named read-outs stand apart in the source and are kept apart here.
Assays:
black cutworm larvae [1] = assay: Example 7: stand reduction of corn by black cutworm, bifenthrin, lambda-cyhalothrin and tefluthrin seed treatment; format: in vivo; settings: seed treatment 209 gm AI/100 kg of seed
Procedure: A lambda-cyhalothrin seed treatment formulation was prepared from WARRIOR T 11.4 CS formulation (Zeneca Ag Products, Wilmington, Del.), as described in Example 1. A seed treatment formulation was also prepared by the method as described in Example 1, except from CAPTURE® 2 EC (bifenthrin; available from FMC). Also, a seed treatment formulation was prepared from RAZE 2.5 FS formulation (available from Wilbur-Ellis Co.), containing 26.8% tefluthrin. Each of these seed treatment formulations were applied for one minute at room temperature to twenty-five grams of Pioneer corn seed (Cultivar PN3394) in a rotostatic seed treater at the treatment rates noted in Table 8, below. The treated seeds were allowed to sit uncapped for four to twenty-four hours before planting.
(§1) Treated and untreated seeds (Pioneer hybrid PN3394) were planted in a soil mix consisting of Dupo silt loam, 30% Perlite, 20% coarse sand (WB-10 grade) in six groups of tubs (20 in. L×15 in. W×8 in. D). Twelve seeds were planted per tub and three tubs were planted for each treatment regimen. […]
(§2) The corn plants were infested at 12 DAP, which corresponds to late growth stage 11 by placing two black cutworm larvae at 3/4 instar on the soil surface near the base of the plant. […] The percent stand reduction due to plant cutting was calculated by dividing the number of cut plants into the number of plants present at infestation.

[2] = temperature not given; cited from earlier work
[3] = cited from earlier work
black cutworm larvae [4] = assay: Example 5: stand reduction of corn by black cutworm, lambda cyhalothrin or tefluthrin seed treatment; format: in vivo; settings: band w/ incorporation 30 (grams/hectare)
Procedure: A lambda-cyhalothrin seed treatment formulation was prepared from the WARRIOR T insecticide and corn seed was prepared and treated as described in Example 1, except that the treatment levels were 125, 228 and 358 gm active ingredient/100 kg seed. A tefluthrin seed treatment formulation was also prepared from RAZE 2.5 FS, which contains tefluthrin as the active ingredient, into water as a carrier. Treated and untreated seeds were planted and cultivated as described as described in Example 1. Again, FORCE 3GR was applied and incorporated into a 5 inch band on the soil surface at the time of planting. The tubs were overhead irrigated until the plants were infested with black cutworm larvae.
The corn plants were infested at 12 DAP, as described in Example 1. Plants were rated at 10 days after infestation (DAI) for the number of cut plants. The percent stand reduction due to plant cutting was calculated by dividing the number of cut plants into the number of plants present at infestation.

black cutworm larvae [5] = assay: Example 8: stand reduction of corn by black cutworm, RAZE versus WARRIOR T seed treatment; format: in vivo; settings: band w/ incorporation 30 (grams/hectare)
Procedure: A lambda-cyhalothrin seed treatment formulation was prepared from WARRIOR T 11.4 CS formulation (Zeneca Ag Products, Wilmington, Del.), as described in Example 1. Also, a tefluthrin seed treatment formulation was prepared from RAZE […] formulation (available from Wilbur-Ellis Co.), by the same method. Each of these seed treatment formulations were applied for one minute at room temperature to twenty-five grams of Pioneer corn seed (Cultivar PN3394) in a rotostatic seed treater at the treatment rates noted in Table 9, below. The treated seeds were allowed to sit uncapped for four to twenty-four hours before planting.
as §1, with “regimen. Soil applications of FORCE 3GR, which contains 3% tefluthrin as the active ingredient, were used for two sets of tubs containing untreated seeds.” for “regimen.”
as §2

SMILES	STAND REDUCTION (%, 10 days after infestation) (black cutworm larvae [1])	Water solubility [2]	Vapor pressure ([3]; 25° C.)	STAND REDUCTION (%, 10 days after infestation) (black cutworm larvae [4])	STAND REDUCTION (%, 10 days after infestation) (black cutworm larvae [5])	Vapor pressure ([3]; 20° C.)
Cc1c(COC(=O)C2C(C=C(Cl)C(F)(F)F)C2(C)C)cccc1-c1ccccc1 (stereo not drawn) [Bifenthrin, (2-methyl [1,1′-biphenyl]-3-yl)methyl 3-(2-chloro-3,3,3-trifluoro-1-propenyl)-2,2-dimethyl-cyclopropanecarboxylate]	total protection	0.1 µg/mL	0.024 mPa			
Cc1c(F)c(F)c(COC(=O)[C@@H]2[C@H](/C=C(\Cl)C(F)(F)F)C2(C)C)c(F)c1F (racemic) [Tefluthrin, (2,3,5,6-tetrafluoro-4-methylphenyl)-methyl-(1 alpha, 3 alpha)-(Z)-(±)-3-(2-chloro-3,3,3-trifluoro-1-propenyl)-2,2-dimethylcyclopropanecarboxylate]				total protection	total protection	8 mPa

From US6713077B1, “Control of shoot/foliar feeding pests with pesticide seed treatments” (Monsanto Technology, LLC, priority 1999, dated 2004)
